Test results as given in US12559629B2, “Method for preparing a stable Trypan Blue solution” (BECKMAN COULTER, INC., priority 2020, dated 2026).
Like-named read-outs stand apart in the source and are kept apart here.

Columns and labels:
[1] = Preliminary experiments: salt-induced precipitation/aggregation of 0.2% w/v aqueous Trypan Blue; format: physicochemical
[2] = cited from earlier work
[3] = Dye precipitation on mixing Nominal 0.4% Trypan Blue in NaCl with polycationic compounds; format: physicochemical; details: Nominal 0.4% Trypan Blue in NaCl (0.20 mL) mixed with 0.5 mg mL^−1 compound in PBS (0.20 mL)
Excerpt: In the present study, Trypan Blue was mixed with various cell culture medium containing polycationic compounds. Nominal 0.4% Trypan Blue in NaCl was mixed with PBS (negative control), kanamycin (a positively charged aminoglycoside), and spermidine (a positively charged polyamine). […] This effect can be reasonably generalized to other polycationic compounds, particularly those containing amine functional groups.

For [Cl-].[K+] [potassium chloride], the “Dye aggregation of Trypan Blue in presence of salt” value (“Dye aggregation of Trypan Blue” below) ([1]; 150 mM concentrations) was “produced dye aggregation”.

In the case of Cc1cc(-c2ccc(/N=N/c3ccc4c(S(=O)(=O)O)cc(S(=O)(=O)O)c(N)c4c3O)c(C)c2)ccc1/N=N/c1ccc2c(S(=O)(=O)O)cc(S(=O)(=O)O)c(N)c2c1O [Evans Blue], the “Solubility of precipitate with neomycin” value ([2]; pH 8.5) is listed as “insoluble” and the “Solubility of precipitate with neomycin” value ([2]; pH 10.4) is listed as “dissolves”.

For [Cl-].[Cs+] [cesium chloride], the “Dye aggregation of Trypan Blue” value ([1]; 150 mM concentrations) was “produced dye aggregation”.

In the case of [Cl-].[Li+] [lithium chloride], the “Dye aggregation of Trypan Blue” value ([1]; concentrations as high as 600 mM) is reported as “did not promote dye aggregation”.

With O=P([O-])(O)O.[Na+] [monosodium phosphate] the “Dye aggregation of Trypan Blue” value ([1]; 150 mM sodium concentrations) was “promoted dye aggregation”.

In the case of O=S([O-])[O-].[Na+].[Na+] [sodium sulfite], the “Dye aggregation of Trypan Blue” value ([1]; 150 mM sodium concentrations) is reported as “promoted dye aggregation”.

In the case of [Cl-].[Na+] [sodium chloride], the “Precipitation of 0.2% w/v Trypan Blue” value ([1]; 150 mM salt, storage for 16 hours at 4° C.) is reported as “exhibited precipitation” and the “Precipitation of the dye from 0.2% w/v aqueous solution of Trypan Blue” value ([1]; addition of 250 mM salt) is reported as “rapid precipitation of the dye”.

In the case of Cc1cc(-c2ccc(/N=N/c3c(S(=O)(=O)O)cc4cc(S(=O)(=O)O)cc(N)c4c3O)c(C)c2)ccc1/N=N/c1c(S(=O)(=O)O)cc2cc(S(=O)(=O)O)cc(N)c2c1O [Trypan Blue], the “Formation of red colored dye aggregates” value ([1]; 0.2% w/v in deionized water, two weeks at 4° C.) is reported as “did not form red colored dye aggregates”.

In the case of NCCCCNCCCN [spermidine], the “Precipitation of Trypan Blue” value [3] is reported as “trigger immediate precipitation of Trypan Blue”.
